Assay results as given in patent US8492342B2, “Preprocalcitonin antigen T epitopes” (Institut Gustave Roussy, priority 2007, dated 2013).

Legend:
IGR-Heu tumor cells [1] = test: Lysis (4 h 51Cr-release) by CTL clones of siRNA-electroporated IGR-Heu target cells; type: cell-based, human; conditions: CTL Heu161, FIG. 5C
Procedure: (§1) FIG. 5: Processing of the preprocalcitonin16-25 antigenic peptide involves SP and SPP. A. IGR-Heu tumor cells were incubated for 2 h at 37° C. with the serine protease inhibitor dichloroisocoumarin (DCI) at 250 μM, before addition of anti-preprocalcitonin (left panel) or anti-α-actinin-4 (right panel) CTL clones. B. Analysis of SPP mRNA expression by real-time RT-PCR analysis. Total RNA extracted from IGR-Heu tumor cells, electroporated or not with siRNA targeting SPP (siRNA-S1, siRNA-S2), was reverse-transcribed and quantified by TaqMan as described in Materials and Methods. C. Effect of SPP extinction on tumor cell recognition. Lytic activity of CTL clones Heu161 and Heu127 against IGR-Heu target cells, electroporated or not with siRNA-S1, siRNA-S2 or control siRNA, determined by a conventional 4 h ^51Cr-release assay at the indicated E/T ratios. Two representative experiments of six are shown for CTL clone Heu161. D. Production of IFNγ by Heu161 and Heu127 CTL clones stimulated with tumor cells electroporated or not with siRNA-S1 or control siRNA. E. The preprocalcitonin16-25 antigenic peptide is located at the C-terminus of the signal sequence of the calcitonin hormone precursor. […]
(§2) Cytotoxic activity was measured by a conventional 4-h ^51Cr-release assay using triplicate cultures in round-bottomed 96-well plates. Percent specific cytotoxicity was calculated conventionally; SD were <5%. […]

SPP = SPP expression in IGR-Heu cells electroporated with siRNA (real-time RT-PCR; protein); type: cell-based, human; conditions: for SPP expression at RNA level: 50 nM siRNA, 72 h, FIG. 5B; for SPP expression at protein level: data not shown
Procedure: FIG. 5: Processing of the preprocalcitonin16-25 antigenic peptide involves SP and SPP. A. IGR-Heu tumor cells were incubated for 2 h at 37° C. with the serine protease inhibitor dichloroisocoumarin (DCI) at 250 μM, before addition of anti-preprocalcitonin (left panel) or anti-α-actinin-4 (right panel) CTL clones. B. Analysis of SPP mRNA expression by real-time RT-PCR analysis. Total RNA extracted from IGR-Heu tumor cells, electroporated or not with siRNA targeting SPP (siRNA-S1, siRNA-S2), was reverse-transcribed and quantified by TaqMan as described in Materials and Methods. C. Effect of SPP extinction on tumor cell recognition. Lytic activity of CTL clones Heu161 and Heu127 against IGR-Heu target cells, electroporated or not with siRNA-S1, siRNA-S2 or control siRNA, determined by a conventional 4 h ^51Cr-release assay at the indicated E/T ratios. Two representative experiments of six are shown for CTL clone Heu161. D. Production of IFNγ by Heu161 and Heu127 CTL clones stimulated with tumor cells electroporated or not with siRNA-S1 or control siRNA. E. The preprocalcitonin16-25 antigenic peptide is located at the C-terminus of the signal sequence of the calcitonin hormone precursor. The optimal peptide recognized by CTL clone Heu161 is boxed. Arrows indicate the signal peptidase (SP) and the approximate signal peptide peptidase (SPP) cleavage sites. The n, h and c regions in the preprocalcitonin signal peptide were predicted using SignalP 3.0 software.
For SPP inhibition, we first tried the cysteine protease inhibitor Z-LL2 ketone (Calbiochem, Darmstadt, Germany), which was reported to specifically block SPP activity (WEIHOFEN et al., J Biol Chem, 275, 30951-6, 2000). No conclusive results were obtained in functional assays. We thus used siRNA targeting human SPP, siRNA-S1 (5-GACAUGCCUGAAACAAUCAtt-3; SEQ ID NO: 3) and siRNA-S2 (5-UGAUUGUUUCAGGCAUGUCtg-3; SEQ ID NO: 4), purchased from Ambion (Austin, Tex. USA). Non-targeting siRNA (Ambion) were used as negative control (siRNA Control). Briefly, IGR-Heu cells were transfected by electroporation with 50 nM siRNA in a Gene Pulser Xcell Electroporation System (Bio-Rad; 300 V, […]) as previously described (LE FLOC'H et al., J Exp Med, 2007) and then allowed to grow for 72 h.
For SPP mRNA expression, total RNA from IGR-Heu cells, transfected or not with siRNA-S 1 and siRNA-S2 targeting SPP, was extracted, reverse-transcribed and quantified by real-time RT-PCR analysis (TaqMan). PCR primers and probe were designed by Applied Biosystems and used according to the manufacturer's recommendations. The amount of RNA sample was normalized by amplification of an endogenous control (18S). […]

IGR-Heu tumor cells [2] = test: SP inhibition: lysis by CTL clones of DCI-treated IGR-Heu tumor cells; type: cell-based, human; conditions: pre-incubation of IGR-Heu, 250 μM, 2 h 37° C.; FIG. 5A
Procedure: as §1, §2

human TAP = target: T1, human TAP (Homo sapiens, UniProt Q03518+Q03519); test: TAP involvement: CTL recognition of 293-EBNA transfectants cotransfected with ICP47; type: cell-based
T1 construct: endogenous in cells; host or cells: 293-EBNA cells
T1 sequence (Q03518 1-748): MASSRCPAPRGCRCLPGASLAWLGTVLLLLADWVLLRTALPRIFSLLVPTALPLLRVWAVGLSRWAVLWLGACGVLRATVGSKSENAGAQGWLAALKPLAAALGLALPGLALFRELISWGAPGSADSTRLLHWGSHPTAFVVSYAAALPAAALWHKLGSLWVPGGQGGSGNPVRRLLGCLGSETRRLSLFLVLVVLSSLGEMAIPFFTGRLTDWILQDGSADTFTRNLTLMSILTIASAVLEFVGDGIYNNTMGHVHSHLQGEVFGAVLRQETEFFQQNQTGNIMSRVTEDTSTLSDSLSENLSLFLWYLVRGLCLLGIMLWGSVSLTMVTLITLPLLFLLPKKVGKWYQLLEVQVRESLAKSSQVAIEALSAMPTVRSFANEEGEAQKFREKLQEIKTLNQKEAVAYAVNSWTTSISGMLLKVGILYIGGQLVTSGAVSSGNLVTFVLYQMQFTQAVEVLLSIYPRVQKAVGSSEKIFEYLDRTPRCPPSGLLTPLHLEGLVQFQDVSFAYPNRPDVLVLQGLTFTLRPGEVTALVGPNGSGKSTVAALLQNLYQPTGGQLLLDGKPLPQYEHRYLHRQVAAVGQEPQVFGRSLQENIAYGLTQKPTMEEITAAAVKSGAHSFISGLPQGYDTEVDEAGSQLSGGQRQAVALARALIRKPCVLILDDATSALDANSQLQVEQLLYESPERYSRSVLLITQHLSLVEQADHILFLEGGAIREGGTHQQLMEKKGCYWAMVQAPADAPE
T1 sequence (Q03519 1-686): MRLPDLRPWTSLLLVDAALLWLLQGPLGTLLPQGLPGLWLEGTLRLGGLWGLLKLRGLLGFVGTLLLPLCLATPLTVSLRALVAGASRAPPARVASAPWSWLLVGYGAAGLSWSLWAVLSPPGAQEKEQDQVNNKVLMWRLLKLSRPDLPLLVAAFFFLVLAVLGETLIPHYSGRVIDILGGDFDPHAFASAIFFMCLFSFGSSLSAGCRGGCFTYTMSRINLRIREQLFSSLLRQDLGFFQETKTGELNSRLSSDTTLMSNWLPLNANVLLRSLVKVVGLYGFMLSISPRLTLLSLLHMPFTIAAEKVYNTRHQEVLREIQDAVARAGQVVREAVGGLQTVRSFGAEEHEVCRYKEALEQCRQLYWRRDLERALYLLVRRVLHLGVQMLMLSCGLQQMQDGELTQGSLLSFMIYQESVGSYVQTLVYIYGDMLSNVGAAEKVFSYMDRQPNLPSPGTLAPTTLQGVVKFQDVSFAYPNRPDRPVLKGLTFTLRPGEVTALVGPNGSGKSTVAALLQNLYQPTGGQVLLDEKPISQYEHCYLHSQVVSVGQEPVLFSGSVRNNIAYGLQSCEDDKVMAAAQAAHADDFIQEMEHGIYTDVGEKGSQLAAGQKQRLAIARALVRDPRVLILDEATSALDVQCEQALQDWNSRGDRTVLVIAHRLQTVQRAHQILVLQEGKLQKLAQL
Procedure: FIG. 4: Processing of the preprocalcitonin16-25 peptide is proteasome- and TAP-independent. A. IGR-Heu target cells were incubated for 2 h at 37° C. in the presence or absence of the proteasome-specific inhibitor epoxomicin, and then Heu161 cells were added. The autologous Heu127 clone, recognizing on IGR-Heu a proteasome-dependent mutated α-actinin-4 peptide, was included as a positive control. TNFβ released in medium after 24 h of culture was measured as above. B. 293-EBNA cells were cotransfected with pCEP4 containing either cDNA 150 (upper panel) or the mutated α-actinin-4 cDNA (lower panel), with pcDNA3.1 containing an HLA-A*0201 construct, and with various amounts of vector pBJi-neo containing IPC47 cDNA. CTL clones Heu161 (upper panel) or Heu127 (lower panel) were then added. Controls included 293-EBNA cells transfected with HLA-A2 or pBJi-neo-IPC47 alone, and incubation of transfectants with either preprocalcitonin or α-actinin-4 peptides. Data shown are representative of four independent experiments.
The involvement of TAP was tested by cotransfecting into 293-EBNA cells constructs coding for the antigenic peptide, for HLA-A2, and for the immediate-early protein ICP47 of herpes simplex virus type 1, which binds to and inhibits human TAP (BANKS et al., Virology, 200, 236-45, 1994).

CTL clone Heu161 = test: CTL stimulation (TNF release) by synthetic peptides loaded on HLA-A2+ MZ2-MEL.3.1 melanoma cells; type: cell-based, human
Procedure: FIG. 3: Identification of the antigenic peptide recognized by CTL clone Heu161. A. CTL stimulation with purified synthetic peptides. Peptides were loaded on allogeneic HLA-A2^+ MZ2-MEL.3.1 melanoma cells for 60 min at room temperature before addition of CTL clone Heu161. TNF release was measured 16 h later. Empty circles represent the results obtained with peptide SEQ ID NO: 1, full circles represent the results obtained with peptide SEQ ID NO: 2, empty squares represent the results obtained with peptide SEQ ID NO: 24, full squares represent the results obtained with peptide SEQ ID NO: 25 and empty diamonds represent the results obtained with peptide SEQ ID NO: 26. B. Lytic activity of CTL clone on peptide-pulsed cells. ^51Cr-labeled Heu-EBV-B cells were incubated over 60 min with the indicated concentrations of peptides before addition of CTL clone Heu161 at an E/T cell ratio of 10:1. Chromium release was measured after 4 h. Empty circles represent the results obtained with peptide SEQ ID NO: 1, full circles represent the results obtained with peptide SEQ ID NO: 2
TNFβ was detected by measuring the cytotoxicity of the culture medium on TNF-sensitive WEHI-164c13 cells with a MTT colorimetric assay (ESPEVIK & NISSEN-MEYER, J Immunol Methods, 95, 99-105, 1986).
We then prepared a series of calcitonin cDNA fragments truncated at their 5′ end and engineered to contain an initiation codon and a Kozak consensus sequence. […] Further trimming narrowed down the peptide-encoding region to residues 9-38 (FIG. 2B). Among a set of overlapping peptides covering this region, only two were recognized by CTL clone Heu161: VLLQAGSLHA (SEQ ID NO: 1) and LVLLQAGSLHA (SEQ ID NO: 2), which are identical, but with an additional leucine in the latter peptide. […] In a lysis assay, the decamer was slightly more efficient than the 11-mer peptide by a factor of about three (FIG. 3B). We concluded that the optimal antigenic peptide recognized by CTL clone Heu161 was VLLQAGSLHA (SEQ ID NO: 1) or preprocalcitonin16-25. This peptide corresponds exactly to the C-terminal part of the preprocalcitonin signal peptide (LE MOULLEC et al., FEBS Lett, 167, 93-7, 1984).

Molecule | sensitivity of tumor cells to lysis by anti-preprocalcitonin CTL clone (IGR-Heu tumor cells [1]) | SPP expression at RNA level (SPP) | SPP expression at protein level (SPP) | also measured
5-GACAUGCCUGAAACAAUCAtt-3 [siRNA-S1] | strong decrease | specifically inhibit SPP expression | specifically inhibit SPP expression | 
5-UGAUUGUUUCAGGCAUGUCtg-3 [siRNA-S2] | strong decrease | specifically inhibit SPP expression | specifically inhibit SPP expression | 
O=c1oc(Cl)c(Cl)c2ccccc12 [DCI, dichloroisocoumarin] |  |  |  | effect on lysis by anti-preprocalcitonin CTL clone (IGR-Heu tumor cells [2]): totally resistant to lysis; effect on recognition by anti-α-actinin-4 CTL clone (IGR-Heu tumor cells [2]): only a moderate effect
ICP47: immediate-early protein ICP47 of herpes simplex virus type 1, which binds to and inhibits human TAP; expressed by cotransfection |  |  |  | effect on recognition of transfectants by anti-preprocalcitonin CTLs (human TAP; cDNA 150 + HLA-A2, FIG. 4B): no detectable effect; effect on recognition of transfectants by anti-α-actinin-4 CTL clone (human TAP; mutated α-actinin-4 cDNA + HLA-A2, FIG. 4B): strongly inhibited
LVLLQAGSLHA [SEQ ID NO: 2] |  |  |  | EC50 (CTL clone Heu161; HLA-A2+ melanoma cells loaded 60 min, TNF release after 16 h, FIG. 3A, read-out: peptide concentration giving half-maximal effect (sensitization to recognition by CTL Heu161)): ~10 nM; recognition of peptide by CTL clone Heu161 (CTL clone Heu161; overlapping synthetic peptides of preprocalcitonin): recognized
